ChEMBL document CHEMBL1149057, “Mucus synthesis and sulfhydryl groups in cytoprotection mediated by dehydroleucodine, a sesquiterpene lactone” (1994)
Activity calls are given as the source filed them. The calls are words filed in the database; no cut-off is given here.

What was measured:
Rattus norvegicus [1] = test: Gastroprotective effect in fasted Wistar rat assessed as increase in rate of gastric mucus glycoprotein synthesis at 40 mg/kg, po after 1 hr by N-acetyl-D-[1-3H]glucosamine incorporation method relative to control; assay type: functional, Gastric mucosa
Rattus norvegicus [2] = test: Gastroprotective effect against ethanol-induced gastric damage in fasted Wistar rat assessed as extent of mucosal damage at 40 mg/kg, po pretreated 30 mins before ethanol challenge in presence of indomethacin pretreated 60 mins before ethanol challenge; assay type: functional, Stomach
Rattus norvegicus [3] = species: Rattus norvegicus; test: Gastroprotective effect in pylorus-ligated Wistar rat assessed as inhibition of acid secretion; assay type: functional, organism-based
Rattus norvegicus [4] = test: Gastroprotective effect against ethanol-induced gastric damage in fasted Wistar rat assessed as extent of mucosal damage at 40 mg/kg, po pretreated 30 mins before ethanol challenge measured after 60 mins
Rattus norvegicus [5] = test: Gastroprotective effect against ethanol-induced gastric damage in fasted Wistar rat assessed as extent of mucosal damage at 40 mg/kg, po pretreated 30 mins before ethanol challenge in presence of N-ethylmaleimide pretreated 60 mins before ethanol challenge
Rattus norvegicus [6] = test: Gastroprotective effect against ethanol-induced gastric damage in fasted Wistar rat assessed as extent of mucosal damage at 40 mg/kg, po pretreated 30 mins before ethanol challenge in presence of N-ethylmaleimide and indomethacin pretreated 60 mins before ethanol challenge

C=C1C(=O)O[C@@H]2[C@H]3C(C)=CC(=O)C3=C(C)CC[C@@H]12 [DEHYDROLEUCODIN]
fold change (FC) (Rattus norvegicus [1]): 7 | UI (Rattus norvegicus [2]): 1.2 | Activity (Rattus norvegicus [3]): inactive | UI (Rattus norvegicus [4]): 0.3 | UI (Rattus norvegicus [5]): 2.4 | UI (Rattus norvegicus [6]): 3.3
